Peptide text beside a SMILES is read from it. l = locked nucleic acid (LNA); [5mC] = 5-methylcytosine; d = 2'-deoxy (DNA)
Legend:
Format in all cases: cell-based, human
miR-24-3p = miR-24-3p expression in UC colonic explant culture (LNA miRNA PCR assay); conditions: 1 uM, 12 h, UC colonic explant tissue pellet
Procedure: (§1) Step 1: A biopsy was obtained from a macroscopically disease area of the inflammatory intestinal mucosa of an IBD patient. Samples can be from small or large intestine and the patient can be afflicted with, or suspected of having, UC or CD. The medium used to transport mucosal colonic biopsies from IBD patients was pre-cooled on ice, and comprised: Dulbecco's Modified Eagle Medium (DMEM) liquid (High Glucose), 4 mM L-alanyl-L-glutamine dipeptide, 1% penicillin/streptomycin and […] gentamicin. Tissue culture was initiated less than 1 hour after collection.
(§2) Step 2: Once in the laboratory, the biopsy was washed in Hank's Balanced Salt Solution buffer for a few minutes (e.g., 2-5 min) and cut with sterile scalpels to create biopsy pieces (approximately 2-5 um sections). Media comprising Dulbecco's Modified Eagle Medium (DMEM) liquid (High Glucose), 4 mM L-alanyl-L-glutamine dipeptide, 1% FBS, 1% non-essential amino acids, 1% Sodium Pyruvate, 1% penicillin/streptomycin, […] gentamicin and 5 ug/ml insulin-transferrin-selenium-X, was pre-warmed at 37° C. and added to the pieces of the biopsy. The average volume of media for each biopsy was 1.5 mL, which allows generation of 10 replicates in a 96 well plate (150 uL/well) or 60 replicates in a 384 well plate (25 uL/well). The plates then were cultured in a humidified chamber with 95% O2 and 5% CO2. […]

TNFA = TNFA level in supernatant of colonic explant culture (ELISA), ex vivo biopsy high throughput platform; conditions: 12 h; for TNFA levels / effectiveness at reducing TNFA levels, compared with the other inhibitors: 10 uM; for TNFA levels: supernatant of UC active disease colonic biopsy replicate, vs untreated control well; for effectiveness at reducing TNFA levels, compared with the other inhibitors: UC colonic explant
Procedure: as §1
(§3) Step 2: Once in the laboratory, the biopsy was washed in Hank's Balanced Salt Solution buffer for a few minutes (e.g., 2-5 min) and cut with sterile scalpels to create biopsy pieces (approximately 2-5 um sections). Media comprising Dulbecco's Modified Eagle Medium (DMEM) liquid (High Glucose), 4 mM L-alanyl-L-glutamine dipeptide, 1% FBS, 1% non-essential amino acids, 1% Sodium Pyruvate, 1% penicillin/streptomycin, […] gentamicin and 5 ug/ml insulin-transferrin-selenium-X, was pre-warmed at 37° C. and added to the pieces of the biopsy. The average volume of media for each biopsy was 1.5 mL, which allows generation of 10 replicates in a 96 well plate (150 uL/well) or 60 replicates in a 384 well plate (25 uL/well). The plates then were cultured in a humidified chamber with 95% O2 and 5% CO2. The 96-and 384-well plates are two non-limiting embodiments of the platform assay disclosed herein, though additional embodiments of the high throughput platform disclosed herein can be used to predict drug responses by evaluating multi-omic signatures in other multi-well formats.
(§4) An embodiment of the ex vivo biopsy high throughput platform was used to assess the effects of G9A inhibitors BIX01294 (cat. No 3364, Tocris) and UNC0642 (cat. No 5132, Tocris), JMJD3 inhibitors GSK-J4 (cat. No 4594, Tocris) and JIB-04 (cat. No 4972, Tocris), and an EZH2 inhibitor UNC1999 (cat. No 4904, Tocris) (10 uM) on a multi-omic response, evaluating cytokine production levels and global chromatin H3K9me2 and H3K27me3 levels in UC active disease colonic explants.
(§5) Specifically, a UC active disease colonic biopsy was processed as described in Example 1 and separated into 6 replicates in a 96-well plate. One well was used as control and the rest were treated with each compound at the concentration of 10 uM. Twelve hours later, 50 uL of supernatant was collected to evaluate IL-1B (#KHC0011, ThermoFisher) and TNFA levels (#BMS223HS, ThermoFisher); meanwhile, the tissue pellet was also collected and processed to check H3K9me2 (#P-3032, Epigentek) and H3K27me3 (#P-3020,Epigentek) levels by ELISA assay.
(§6) The biopsy was processed as described in Example 1. Briefly, one well was used as control and treated with RNA-negative control (miR-NC, cat no. YI00199006, Qiagen) (1 uM), a second well was treated with the miR-24-A inhibitor (1 uM), and a third well was treated with miR-24-B inhibitor (1 uM). 50 uL of supernatant was collected to evaluate IL1B and TNFA levels and tissue pellet was collected and processed for RNA extraction (miRNeasy Kit, Qiagen). MicroRNA LNA miRNA PCR assays (Qiagen) were performed for miR-24-3p (cat.no YP00204260, Qiagen).

IL-1B = IL-1B level in supernatant of colonic explant culture (ELISA), ex vivo biopsy high throughput platform; conditions: 12 h; for IL-1B levels / effectiveness at reducing IL1B levels, compared with the other inhibitors: 10 uM; for IL-1B levels: supernatant of UC active disease colonic biopsy replicate, vs untreated control well; for effectiveness at reducing IL1B levels, compared with the other inhibitors: UC colonic explant
Procedure: as §1, §3, §4, §5, §6

H3K9me2 = assay: Global chromatin H3K9me2 level in colonic explant tissue pellet (ELISA); conditions: 10 uM, 12 h, tissue pellet of UC colonic explant
Procedure: as §1, §2

H3K27me3 = assay: Global chromatin H3K27me3 level in colonic explant tissue pellet (ELISA); conditions: 10 uM, 12 h, tissue pellet of UC colonic explant
Procedure: as §1
as §3, with “formats. […]” for “formats.”

IBD colonic explants = assay: Cell viability of colonic explants (CellTiter-Blue assay)
Procedure: as §1
Step 3: Cell viability evaluation. To evaluate the effects of any drug using a colonic explant assay, the viability of the colonic explant in culture is examined. The experimental conditions related to the culture viability of the colonic explants were optimized by focusing on the media composition during the transfer of the biopsy from the patient biopsy collection site to the laboratory and the duration of culturing the explant.
CellTiter-Blue assay (Promega) was used to evaluate cell viability of the colonic explants. Briefly, the CellTiter-Blue reagent was added in the culture and the fluorescent signal was measured (560/590 nm) after 1 h of incubation in 37° C. […]

[1] = 1 uM, UC colonic explant supernatant, control miR-NC

**Q.** What does the source list for “5-CTG^mCTGAA^mCTGAG^mCCA-3 (antisense CTGCTGAACTGAGCCA; sugars from the 5' end l3 d6 l2 d3 l2, [5mC] at 4, 9, 14, all phosphorothioate, methylation of C not given here) [miR-24-A, antisense-miR-24-3p compound; phosphorothioate linkages bases 1-16, LNA at bases 1-3, 10-11, 15-16,5-methylcytosine at positions 4,9, 14]”?
**A.** miR-24-3p expression levels, compared to miR-24-B inhibitor (miR-24-3p): more effectively suppressed; reducing TNFA levels, compared to miR-24-B inhibitor (TNFA; [1]): more effective; reducing IL1B levels, compared to miR-24-B inhibitor (IL-1B; [1]): more effective

**Q.** COc1cc2nc(N3CCCN(C)CC3)nc(NC3CCN(Cc4ccccc4)CC3)c2cc1OC [BIX01294] was tested. Which TNFA levels (TNFA) did it give?
**A.** reduced

**Q.** What about the IL-1B levels (IL-1B) of the same compound?
**A.** reduced

**Q.** And the H3K9me2 levels (H3K9me2)?
**A.** reduced

**Q.** With CCOC(=O)CCNc1cc(N2CCc3ccccc3CC2)nc(-c2ccccn2)n1 [GSK-J4] as the compound, how does the “effectiveness at reducing TNFA levels, compared with the other inhibitors” value (TNFA) read?
**A.** more effective than BIX01294 and JIB-04

**Q.** And the TNFA levels (TNFA)?
**A.** reduced

**Q.** What about the “effectiveness at reducing IL1B levels, compared with the other inhibitors” value (IL-1B) of the same compound?
**A.** more effective than BIX01294 and JIB-04

**Q.** And the IL-1B levels (IL-1B)?
**A.** reduced

**Q.** And the H3K27me3 levels (H3K27me3)?
**A.** increased

**Q.** Which TNFA levels (TNFA) does the source give for Clc1ccc(N/N=C(\c2ccccc2)c2ccccn2)nc1 [JIB-04] here?
**A.** reduced

**Q.** What about the IL-1B levels (IL-1B) of the same compound?
**A.** reduced

**Q.** What about the H3K27me3 levels (H3K27me3) of the same compound?
**A.** increased

**Q.** C[C@H](N)C(=O)N[C@@H](CCC(N)=O)C(=O)O [L-alanyl-L-glutamine dipeptide] (H-Ala-Gln-OH) was tested. Which “cell viability of colonic explants” value (IBD colonic explants; added to the transfer media (DMEM, penicillin/streptomycin, gentamicin)) did it give?
**A.** substantial increase in cell viability

**Q.** And the “concentration identified to have the highest cell viability” value (IBD colonic explants; in transfer media)?
**A.** 4 mM

**Q.** How did the “effectiveness at reducing TNFA levels, compared with the other inhibitors” value (TNFA) turn out when COc1cc2c(NC3CCN(C(C)C)CC3)nc(N3CCC(F)(F)CC3)nc2cc1OCCCN1CCCC1 [UNC0642] was run?
**A.** more effective than BIX01294 and JIB-04

**Q.** What about the TNFA levels (TNFA) of the same compound?
**A.** reduced

**Q.** What about the “effectiveness at reducing IL1B levels, compared with the other inhibitors” value (IL-1B) of the same compound?
**A.** more effective than BIX01294 and JIB-04

**Q.** What about the IL-1B levels (IL-1B) of the same compound?
**A.** reduced

**Q.** What about the H3K9me2 levels (H3K9me2) of the same compound?
**A.** reduced

**Q.** With CCCc1cc(C)[nH]c(=O)c1CNC(=O)c1cc(-c2ccc(N3CCN(C(C)C)CC3)nc2)cc2c1cnn2C(C)C [UNC1999] as the compound, how does the TNFA levels (TNFA) read?
**A.** increased

**Q.** What about the IL-1B levels (IL-1B) of the same compound?
**A.** increased

**Q.** What about the H3K27me3 levels (H3K27me3) of the same compound?
**A.** reduced

From patent US20250244312A1, “EX VIVO COLONIC BIOPSY PLATFORM TO EVALUATE MULTI-OMIC SIGNATURES FOR SCREENING CANDIDATE THERAPEUTICS” (Athos Therapeutics, Inc., priority 2020, published 2025)
